Assay results published in US9624161B2 (priority 2009, dated 2017).
Values joined by “and” are separate entries in the source; they are usually repeats but may differ in a detail not shown here. Equal values may be shown once.

Tested on: men with metastatic castration resistant prostate cancer (mCRPC)
Assay: Study 6: secondary hormone therapy with Compound IV 125 mg, 250 mg or 500 mg in mCRPC/nmCRPC maintained on ADT
Assay type: in vivo, human
From the text: Compound IV, is studied (Study 6) for the proposed indication secondary hormone therapy for metastatic castration resistant prostate cancer (mCRPC), for high risk non-metastatic castration resistant prostate cancer (nmCRPC) or advanced prostate cancer at high risk of progressing to CRPC, or any combination thereof.
The effect of Compound IV as secondary hormonal therapy that reduces serum PSA and serum free testosterone levels in men with metastatic castration resistant prostate cancer maintained on androgen deprivation therapy is studied. The study assesses the effects of Compound IV on serum PSA response and serum PSA progression in men with mCRPC on ADT with LHRH agonists, LHRH antagonists, or orchidectomy. This study also assesses the VTE risk of lower doses of Compound IV. Secondary endpoints include serum free testosterone levels, adrenal gland androgen precursor production (DHEA and DHEAS levels), progression free survival, and skeletal related events (SRE).
75 subjects with castration resistant prostate cancer patients with radiographic evidence of metastatic disease (T any-N any-M1) are enrolled in the study. These subjects have a median life expectancy of less than 20 months, i.e. more serious disease than the other subjects with advanced prostate cancer enrolled in the previous studies. All subjects have been previously treated with androgen deprivation therapy (ADT), have responded to the ADT and currently have a serum PSA >2 ng/mL or >2 ng/mL and representing a 25% increase above the nadir achieved on the ADT. Subjects are maintained on ADT throughout the study.
Each subject receives daily doses of 125 mg Compound IV, 250 mg Compound IV, or 500 mg Compound IV administered orally, until their serum PSA increases at least 25% and 2 ng/mL from the nadir at two successive serum PSA assessments after initiation of treatment with Compound IV.
Enrollment into this study is staggered by 1 cycle (30 days) such that the first 25 subjects are enrolled into the 125 mg Compound IV dose arm. These subjects are evaluated for incidence of venous thromboembolic events (VTE). When the last subject in the 125 mg Compound IV dose arm has completed 1 cycle of therapy (30 days) in this dose arm and there is an acceptable incidence rate of VTE in this dose arm at that time (less than 3), enrollment is commenced in the 250 mg Compound IV dose arm. These subjects are evaluated for the incidence of VTE. When all 25 subjects in the 250 mg Compound IV dose arm have completed 1 cycle of therapy (30 days) in this dose arm and there is an acceptable incidence rate of VTE in this dose arm at that time (less than 3), enrollment into the 500 mg Compound IV dose arm (25 subjects) is commenced.
125 mg Compound IV, 250 mg Compound IV, or 500 mg Compound IV will be administered daily to all subjects in the study until they have developed serum PSA progression (serum PSA has increased at least 25% and 2 ng/mL above the nadir at two successive sample times after initiation of treatment with Compound IV).
Assessments of serum total testosterone, serum free testosterone, serum SHGB and serum PSA concentrations are made on Days 15, 30, and every 30 days until their serum PSA has increased at least 25% and 2 ng/mL from the nadir at two successive sample times after initiation of treatment with Compound IV. Bone turnover markers are assessed at baseline (Day 1), Day 90, and End of Study.
The incidence and frequency of hot flashes is assessed at baseline (Day 1), Day 30, Day 60, Day 90 and End of Study.
The proportion of subjects with a 50% decline from baseline in serum PSA (confirmed by a second serum PSA assessment 30 days later) by Day 90 (with follow up confirmation by Day 120) […]

[1] = 250 mg, 11 evaluable patients (FIG. 61)
[2] = Study 6, 125 mg, 20 evaluable patients
[3] = Study 6, 125 mg, 21 evaluable patients
[4] = Study 6, 125 mg, mCRPC on ADT, Day 90, N 20
[5] = Study 6, 125 mg, mCRPC on ADT, N 20
[6] = Study 6, 125 mg, patients with hot flashes at baseline
[7] = Study 6, 125 mg, patients with no hot flashes at baseline

O=C(c1ccc(O)c(F)c1)N(c1ccc(O)cc1)c1ccc(F)cc1 [Compound IV, 3-fluoro-N-(4-fluorophenyl)-4-hydroxy-N-(4-hydroxyphenyl)benzamide]
Deep vein thrombosis events (DVTs) (125 mg): No deep vein thrombosis events (DVTs) have been reported
Evaluable patients with improvements in hot flash frequency or severity (125 mg): 33%
Evaluable patients with reductions in CTX (125 mg): 60%
Evaluable patients with reductions in bone specific alkaline phosphatase (125 mg): 52%
Men that do not respond and have continually increasing PSA levels (125 mg): 6
Patients reporting a PSA decrease in response to therapy (125 mg): 24 patients
Patients with maximum free T reductions greater than 50% from baseline (125 mg): 24 of 30
Patients with reductions in free T (125 mg): 27 of 30
SAEs or VTEs (125 mg): no SAEs or VTEs
Subjects with decreased collagen C-telopeptide (CTX) (125 mg): 69%
Subjects with ≧50% decrease in PSA level (125 mg): 11%
Patients with free T >0.7 pg/ml (Day 1) that go to <0.7 pg/mL (125 mg cohort): 22/25
Patients with total T >20 ng/dL (Day 1) that do NOT go to <20 ng/dL (125 mg cohort): 0/3
Patients with total T >20 ng/dL (Day 1) that go to <20 ng/dL (125 mg cohort): 3/3
Patients with improvement in both frequency and severity of hot flashes (125 mg, 18 evaluable patients): 22%
Patients with improvement of frequency or severity and stability of the other measurement (125 mg, 18 evaluable patients): 11%
Patients with stability in frequency and severity of hot flashes (125 mg, 18 evaluable patients): 50%
Patients with worsening of either frequency or severity of hot flashes (125 mg, 18 evaluable patients): 17%
SHBG level relative to Day 0 in all treated men (125 mg, at least 90 days, initial 15 patients): ≥ 150 % of Day 0
Men with suboptimal castration (free T>0.7 pg/ml) that became optimally castrated (125 mg, by day 90, initial 15 patients): 91%
Treated men with improvement and stability of bone turnover markers (125 mg, initial group, 11 evaluable subjects): at least 73%
Patients with >45% decrease in PSA (125 mg, prior to day 90, initial 15 patients): 4/15 and 4
Subjects with any level of PSA decline (250 mg): 85%
Subjects with decreased collagen C-telopeptide (CTX) (250 mg): 81%
Subjects with ≧50% decrease in PSA level (250 mg): 30%
Patients with free T >0.7 pg/ml (Day 1) that go to <0.7 pg/mL (250 mg cohort): 9/10
Patients with total T >20 ng/dL (Day 1) that do NOT go to <20 ng/dL (250 mg cohort): 0/4
Patients with total T >20 ng/dL (Day 1) that go to <20 ng/dL (250 mg cohort): 4/4
Reported drug related serious adverse events (SAE) (250 mg daily): one
Subjects that reported adverse events (AE's) (250 mg daily): seven
Median SHBG level (250 mg daily, initial 20 patients, 90 days): 297 % of baseline
SAE possibly drug related (250 mg daily, patient required hospitalization): Phlebothrombosis-Grade 3
Patients stable in both hot flash measurements [1]: 45%
Patients with improvement in both/either frequency and severity of hot flashes [1]: 36%
Bone turnover (CTX) decreased (improved), share of subjects (Study 6, 125 mg cohort): 69% are decreased
SHBG, median (of baseline) (Study 6, 125 mg cohort): Median - 158%
PSA response: subjects with ≧50% decrease in PSA (Study 6, 125 mg cohort, 4/38): 4/38 ≧ 50% (11%)
Hot flashes improved, in men experiencing them on Day 1 (Study 6, 125 mg cohort, 7/24): 7/24 improved (29%)
Hot flashes stable, in men experiencing them on Day 1 (Study 6, 125 mg cohort, 12/24): 12/24 stable (50%)
CTx decreased, # of patients (%) [2]: 12/20 (60%)
CTx increased, # of patients (%) [2]: 5/20 (25%)
CTx unchanged, # of patients (%) [2]: 3/20 (15%)
BSAP decreased, # of patients (%) [3]: 11/21 (52%)
BSAP increased, # of patients (%) [3]: 8/21 (38%)
BSAP unchanged, # of patients (%) [3]: 2/21 (10%)
Adverse event frequency (%): Bone pain (Study 6, 125 mg, 34 subjects): 3 (9%)
Adverse event frequency (%): Gynecomastia (grade 2) (Study 6, 125 mg, 34 subjects): 4 (12%)
Adverse event frequency (%): Gynecomastia/breast tenderness (grade 1) (Study 6, 125 mg, 34 subjects): 4 (12%)
Adverse event frequency (%): Loss of appetite (Study 6, 125 mg, 34 subjects): 3 (9%)
Adverse event frequency (%): Nausea (Study 6, 125 mg, 34 subjects): 2 (6%)
Adverse event frequency: VTE (Study 6, 125 mg, 34 subjects): 0
Free testosterone level, mean [4]: 0.57 pg/mL
Free testosterone level, median [4]: 0.45 pg/mL
Free testosterone, % change from baseline to Day 90, median [5]: −57.14%
Free testosterone, change from baseline to Day 90, median [5]: -0.50 pg/mL
Free testosterone, change from baseline to Day 90, mean (Study 6, 125 mg, mCRPC on ADT, N 20, P 0.0002): -0.74 pg/mL
Free testosterone, % change from baseline to Day 90, mean (Study 6, 125 mg, mCRPC on ADT, N 20, P 0.0035): −34.59%
Change in hot flashes (frequency, severity): (Better, Better), % of patients [6]: 18.75%
Change in hot flashes (frequency, severity): (Better, Stable), % of patients [6]: 18.75%
Change in hot flashes (frequency, severity): (Better, Worse), % of patients [6]: 6.25%
Change in hot flashes (frequency, severity): (Stable, Stable), % of patients [6]: 37.50%
Change in hot flashes (frequency, severity): (Stable, Worse), % of patients [6]: 6.25%
Change in hot flashes (frequency, severity): (Worse, Worse), % of patients [6]: 12.50%
Change in hot flashes (frequency, severity): (Stable, Stable), % of patients [7]: 77.78%
Change in hot flashes (frequency, severity): (Worse, Worse), % of patients [7]: 22.22%
SHBG, mean (of baseline) (Study 6, 250 mg cohort): Mean - 294%
SHBG, median (of baseline) (Study 6, 250 mg cohort): Median - 297%
Hot flashes improved, in men experiencing them on Day 1 (Study 6, 250 mg cohort, 4/11): 4/11 improved (36%)
Hot flashes stable, in men experiencing them on Day 1 (Study 6, 250 mg cohort, 5/11): 5/11 stable (45%)
PSA response: subjects with ≧50% decrease in PSA (Study 6, 250 mg cohort, 6/20, Day 90): 6/20 ≧ 50% (30%)
Bone turnover (CTX) decreased (improved), share of subjects (Study 6, 250 mg cohort, 13/16): 13/16 (81%) are
Reported adverse event: Bilateral Breast Tenderness, grade (Study 6, 250 mg daily): Grade 1
Reported adverse event: Diarrhea, grade (Study 6, 250 mg daily): Grade 1
Reported adverse event: Gynecomastia, grade (Study 6, 250 mg daily): Grade 2
Reported adverse event: Nipple Pain, grade (Study 6, 250 mg daily): Grade 1
Reported adverse event: Nipple Tenderness, grade (Study 6, 250 mg daily): Grade 1
Reported adverse event: Sensitivity of Mammila, grade (Study 6, 250 mg daily): Grade 1
